Tested on: patients after acute myocardial infarction
Assay: Life quality, Seattle Angina Questionnaire (SAQ), same clinical trial
Assay type: in vivo, human
Conditions: 12 months after treatment
Excerpt: 3508 patients who were in accordance with the diagnostic standards of AMI for 28 days to 2 years and differentiated as Qi deficiency and blood stagnation syndrome by TCM were studied. 0.5 g Chinese medicine composition prepared by the method of EXAMPLE 1 (Coded as QSYQ) was administrated half an hour after meal, 3 times per day.
There were 19 questions in the Seattle angina questionnaire (SAQ), including 5 parts: physical limitation (PL), anginal stability (AS), anginal frequency (AF), treatment satisfaction (TS) and disease perception (DP). After being given necessary explanation by doctors, the questions were answered independently by patients.
They included the overall survival time, angina pectoris score, TCM symptom score and life quality score, where angina pectoris score, TCM symptom score and life quality score were evaluated at randomization, in 1st, 3rd, 6th, 9th, 12th month after treatment and 18th month after follow-up.
All evaluation results of SAQ were described during the period of observation, and Wilcoxon rank sum test was used for inter-group comparison.
The evaluation results in the SAQ were depicted in different observations, and inter-group comparison was tested by Wilcoxon Rank-sum test.

CC(=O)Oc1ccccc1C(=O)O [Control group, aspirine]
SAQ Question 1-5: Not limited, number of patients (FAS): 863 | SAQ Question 1-5: Not limited, percent of patients (FAS): (49.51%) | SAQ Question 1-5: Other reasons, number of patients (FAS): 11 | SAQ Question 1-5: Other reasons, percent of patients (FAS): (0.63%) | SAQ Question 1-5: Severely limited, number of patients (FAS): 13 | SAQ Question 1-5: Severely limited, percent of patients (FAS): (0.75%) | SAQ Question 1-5: Slightly limited, number of patients (FAS): 517 | SAQ Question 1-5: Slightly limited, percent of patients (FAS): (29.66%) | SAQ Question 1-9: Mildly limited, % of cases (FAS): (19.60%) | SAQ Question 1-9: Mildly limited, cases (FAS): 336 | SAQ Question 1-9: Moderately limited, % of cases (FAS): (20.42%) | SAQ Question 1-9: Moderately limited, cases (FAS): 350 | SAQ Question 1-9: Not limited, % of cases (FAS): (4.55%) | SAQ Question 1-9: Not limited, cases (FAS): 78 | SAQ Question 1-9: Other reasons, % of cases (FAS): (5.89%) | SAQ Question 1-9: Other reasons, cases (FAS): 101 | SAQ Question 1-9: Severely limited, % of cases (FAS): (31.62%) | SAQ Question 1-9: Severely limited, cases (FAS): 542 | SAQ Question 1-9: Slightly limited, % of cases (FAS): (17.91%) | SAQ Question 1-9: Slightly limited, cases (FAS): 307 | SAQ 2nd question: Clearly increased, % of cases (PP): (0.14%) | SAQ 2nd question: Clearly increased, cases (PP): 2 | SAQ 2nd question: Clearly reduced, % of cases (PP): (30.04%) | SAQ 2nd question: Clearly reduced, cases (PP): 428 | SAQ 2nd question: Same, % of cases (PP): (37.05%) | SAQ 2nd question: Same, cases (PP): 528 | SAQ 2nd question: Slightly increased, % of cases (PP): (1.96%) | SAQ 2nd question: Slightly increased, cases (PP): 28 | SAQ 2nd question: Slightly reduced, % of cases (PP): (30.81%) | SAQ 2nd question: Slightly reduced, cases (PP): 439 | SAQ 3rd question: 1-2 times per week, % of cases (PP): (30.81%) | SAQ 3rd question: 1-2 times per week, cases (PP): 439 | SAQ 3rd question: 1-3 times per day, % of cases (PP): (1.96%) | SAQ 3rd question: 1-3 times per day, cases (PP): 28 | SAQ 3rd question: <1 time per week, % of cases (PP): (30.04%) | SAQ 3rd question: <1 time per week, cases (PP): 428 | SAQ 3rd question: No onset, % of cases (PP): (0.00%) | SAQ 3rd question: No onset, cases (PP): 0 | SAQ 3rd question: ≧3 times per week, % of cases (PP): (37.05%) | SAQ 3rd question: ≧3 times per week, cases (PP): 528 | SAQ 3rd question: ≧4 times per day, % of cases (PP): (0.14%) | SAQ 3rd question: ≧4 times per day, cases (PP): 2 | SAQ Question 1-3: Mildly limited, number of patients (PP): 30 | SAQ Question 1-3: Mildly limited, percent of patients (PP): (2.11%) | SAQ Question 1-3: Moderately limited, number of patients (PP): 3 | SAQ Question 1-3: Moderately limited, percent of patients (PP): (0.21%) | SAQ Question 1-3: Not limited, number of patients (PP): 1225 | SAQ Question 1-3: Not limited, percent of patients (PP): (86.03%) | SAQ Question 1-3: Other reasons, number of patients (PP): 8 | SAQ Question 1-3: Other reasons, percent of patients (PP): (0.56%) | SAQ Question 1-3: Severely limited, number of patients (PP): 1 | SAQ Question 1-3: Severely limited, percent of patients (PP): (0.07%) | SAQ Question 1-3: Slightly limited, number of patients (PP): 157 | SAQ Question 1-3: Slightly limited, percent of patients (PP): (11.03%) | SAQ Question 1-4: Mildly limited, number of patients (PP): 177 | SAQ Question 1-4: Mildly limited, percent of patients (PP): (12.43%) | SAQ Question 1-4: Moderately limited, number of patients (PP): 41 | SAQ Question 1-4: Moderately limited, percent of patients (PP): (2.88%) | SAQ Question 1-4: Not limited, number of patients (PP): 724 | SAQ Question 1-4: Not limited, percent of patients (PP): (50.84%) | SAQ Question 1-4: Other reasons, number of patients (PP): 11 | SAQ Question 1-4: Other reasons, percent of patients (PP): (0.77%) | SAQ Question 1-4: Severely limited, number of patients (PP): 2 | SAQ Question 1-4: Severely limited, percent of patients (PP): (0.14%) | SAQ Question 1-4: Slightly limited, number of patients (PP): 469 | SAQ Question 1-4: Slightly limited, percent of patients (PP): (32.94%) | SAQ Question 1-5: Mildly limited, number of patients (PP): 198 | SAQ Question 1-5: Mildly limited, percent of patients (PP): (13.93%) | SAQ Question 1-5: Moderately limited, number of patients (PP): 52 | SAQ Question 1-5: Moderately limited, percent of patients (PP): (3.66%) | SAQ Question 1-5: Not limited, number of patients (PP): 736 | SAQ Question 1-5: Not limited, percent of patients (PP): (51.79%) | SAQ Question 1-5: Other reasons, number of patients (PP): 10 | SAQ Question 1-5: Other reasons, percent of patients (PP): (0.70%) | SAQ Question 1-5: Severely limited, number of patients (PP): 3 | SAQ Question 1-5: Severely limited, percent of patients (PP): (0.21%) | SAQ Question 1-5: Slightly limited, number of patients (PP): 422
